Experimental findings from ChEMBL document CHEMBL4414547, “Discovery of a novel 2,5-dihydroxycinnamic acid-based 5-lipoxygenase inhibitor that induces apoptosis and may impair autophagic flux in RCC4 renal cancer cells” (Eur J Med Chem, 2019) are described below.

Active and inactive are the calls of the source. No cut-off for these calls is given here. A value given as a limit tells only on which side of the number the result lay.

In test [1] the target is T1, Polyunsaturated fatty acid 5-lipoxygenase (Homo sapiens) (UniProt P09917).
T1 sequence (whole entry): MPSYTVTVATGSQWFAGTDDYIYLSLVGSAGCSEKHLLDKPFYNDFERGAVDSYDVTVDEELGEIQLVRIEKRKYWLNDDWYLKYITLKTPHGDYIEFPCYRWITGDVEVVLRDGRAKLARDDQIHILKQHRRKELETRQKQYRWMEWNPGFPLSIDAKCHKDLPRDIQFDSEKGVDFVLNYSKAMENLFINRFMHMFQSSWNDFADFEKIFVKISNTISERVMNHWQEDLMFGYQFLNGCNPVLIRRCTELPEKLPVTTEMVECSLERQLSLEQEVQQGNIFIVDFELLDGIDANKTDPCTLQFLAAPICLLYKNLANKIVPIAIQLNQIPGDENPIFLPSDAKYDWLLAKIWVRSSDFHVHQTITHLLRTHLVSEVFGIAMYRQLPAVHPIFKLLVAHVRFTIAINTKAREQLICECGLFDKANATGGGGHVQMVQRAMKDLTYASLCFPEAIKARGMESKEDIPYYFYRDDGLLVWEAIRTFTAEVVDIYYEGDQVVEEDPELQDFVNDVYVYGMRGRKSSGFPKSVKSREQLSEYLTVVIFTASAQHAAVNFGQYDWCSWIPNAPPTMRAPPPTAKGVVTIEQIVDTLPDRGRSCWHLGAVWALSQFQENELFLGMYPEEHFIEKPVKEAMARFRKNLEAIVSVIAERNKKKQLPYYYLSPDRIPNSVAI
Nature of the test: Inhibition of 5-LO in human PMNL cells assessed as reduction in leukotriene formation at 1 uM preincubated for 5 mins followed by thapsigargin stimulation measured after 15 mins by RP-HPLC analysis relative to control. Type of test: cell-based.

Test [2] is described as follows: Antioxidant activity assessed as DPPH radical scavenging activity incubated for 30 mins under dark condition. Type of test: functional.
The target of test [3] is T1, Polyunsaturated fatty acid 5-lipoxygenase (Homo sapiens). Nature of the test: Inhibition of human 5-LO transfected in HEK293 cells coexpressing FLAP assessed as reduction in leukotriene formation at 1 uM using arachidonic acid as substrate preincubated for 5 mins followed by calcium ionophore A23187/arachidonic acid addition and measured after 15 mins by RP-HPLC analysis. Type of test: cell-based.

The target is the same in test [4]. Nature of the test: Inhibition of human 5-LO transfected in HEK293 cells coexpressing FLAP assessed as leukotriene formation at 1 uM using arachidonic acid as substrate preincubated for 5 mins followed by calcium ionophore A23187/arachidonic acid addition and measured after 15 mins by RP-HPLC analysis relative to control. Type of test: cell-based. Also noted: scale not given: the % may be the effect or the level left.

Test [5] has the same target. Nature of the test: Potency index, ratio of Zileuton IC50 to compound IC50 for inhibition of 5-LO in human PMNL cells assessed as reduction in leukotriene formation preincubated for 5 mins followed by thapsigargin stimulation measured after 15 mins by RP-HPLC analysis. Type of test: cell-based.
A short description of test [6]: Cytotoxicity against VHL-positive human RCC10 cells assessed as reduction in cell viability incubated for 4 days by XTT assay. Type of test: functional, cell-based. The following applies: 96 h.
Test [7] has as its target T2, Polyunsaturated fatty acid 5-lipoxygenase (Homo sapiens, UniProt P09917).
T2 sequence (P09917 whole entry): T1 sequence (whole entry)
Nature of the test: (§1) Inhibition of 5-LO in human PMNL cells assessed as reduction in leukotriene formation preincubated for 5 mins followed by thapsigargin stimulation measured after 15 mins by RP-HPLC analysis. Type of test: cell-based.

The nature of test [8]: Cytotoxicity against VHL-deficient human RCC10 cells assessed as reduction in cell viability incubated for 4 days by XTT assay. Type of test: functional, cell-based. The following applies: 96 h. (In general: Tetrazolium dyes change colour on reduction, which living cells bring about.)
Test [9] relates to RCC4. Nature of the test: Cytotoxicity against VHL-deficient human RCC4 cells assessed as reduction in cell viability incubated for 4 days by XTT assay. Type of test: functional, cell-based. The following applies: for IC50: RCC4, 96 h.
Test [10] deals with 786-0. Nature of the test: Cytotoxicity against VHL-deficient human 786-0 cells assessed as reduction in cell viability incubated for 4 days by XTT assay. The following applies: 786-0, 96 h. Type of test: functional, cell-based.
In test [11] the test system is 786-0. Nature of the test: Cytotoxicity against VHL-positive human 786-0 cells assessed as reduction in cell viability incubated for 4 days by XTT assay. The following applies: 786-0, 96 h. Type of test: functional, cell-based.
Test [12] has as its target T1, Polyunsaturated fatty acid 5-lipoxygenase (Homo sapiens). Nature of the test: Potency index, ratio of CAPE IC50 to compound IC50 for inhibition of 5-LO in human PMNL cells assessed as reduction in leukotriene formation preincubated for 5 mins followed by thapsigargin stimulation measured after 15 mins by RP-HPLC analysis. Type of test: cell-based.
The subject of test [13] is RCC4/VHL. Nature of the test: Cytotoxicity against VHL-positive human RCC4/VHL cells assessed as reduction in cell viability incubated for 4 days by XTT assay. Type of test: functional, cell-based. The following applies: for IC50: 96 h.
Test [14] concerns RCC4. Nature of the test: Induction of autophagy in VHL-deficient human RCC4 cells assessed as increase in LC3B1 expression incubated for 24 hrs by Western blot analysis. Type of test: functional, cell-based.
The subject of test [15] is RCC4. Nature of the test: Induction of cellular phenotype changes in VHL-deficient human RCC4 cells at 2.5 to 10 uM incubated for 24 hrs by inverted microscopic analysis. Type of test: functional, cell-based.
In test [16] the test system is RCC4/VHL. Nature of the test: Induction of DNA damage in human RCC4/VHL cells assessed as induction of p53 expression at 2.5 to 10 uM incubated for 24 hrs by Western blot analysis. Type of test: functional, cell-based. A general note: Immunoblotting shows a protein as a band on a membrane.
Test [17] concerns the target T1, Polyunsaturated fatty acid 5-lipoxygenase (Homo sapiens). The test is described as §1. Type of test: cell-based.
Test [18] relates to RCC4/VHL. Nature of the test: Induction of cellular phenotype changes in human RCC4/VHL cells at 2.5 to 10 uM incubated for 24 hrs by inverted microscopic analysis. Type of test: functional, cell-based.
For test [19], the system named is RCC4. Nature of the test: Induction of DNA damage in VHL-deficient human RCC4 cells assessed as induction of p53 expression at 2.5 to 10 uM incubated for 24 hrs by Western blot analysis. Type of test: functional, cell-based.
Test [20] in a line: Selectivity ratio of IC50 for VHL-positive human RCC4/VHL cells to IC50 for VHL-deficient human RCC4 cells. Type of test: functional.
The test system of test [21] is RCC4. Nature of the test: Induction of autophagy in VHL-deficient human RCC4 cells assessed as increase in conversion of LC3B1 to LC3B2 expression at 2.5 to 10 uM incubated for 24 hrs by Western blot analysis. Type of test: functional, cell-based.
Test [22] relates to RCC4/VHL. Nature of the test: Induction of autophagy in human RCC4/VHL cells assessed as increase in LC3B2 expression incubated for 24 hrs by Western blot analysis. Type of test: functional, cell-based.
Test [23] has as its system RCC4. Nature of the test: Induction of apoptosis in VHL-deficient human RCC4 cells assessed as cleavage of pro-caspase 3 after 24 hrs by Western blot analysis. Type of test: functional, cell-based.
Test [24] deals with RCC4/VHL. Nature of the test: Induction of autophagy in human RCC4/VHL cells assessed as increase in conversion of LC3B1 to LC3B2 expression at 2.5 to 10 uM incubated for 24 hrs by Western blot analysis. Type of test: functional, cell-based.
The subject of test [25] is RCC4. Nature of the test: Induction of autophagy in VHL-deficient human RCC4 cells assessed as increase in LC3B2 expression incubated for 24 hrs by Western blot analysis. Type of test: functional, cell-based.
Test [26] concerns RCC4/VHL. Nature of the test: Induction of autophagy in human RCC4/VHL cells assessed as increase in LC3B1 expression incubated for 24 hrs by Western blot analysis. Type of test: functional, cell-based.
Test [27] has as its system RCC4/VHL. Nature of the test: Inhibition of autophagic flux in human RCC4/VHL cells assessed as increase in p62 expression at 2.5 to 10 uM incubated for 24 hrs by Western blot analysis. Type of test: functional, cell-based.
Test [28] relates to RCC4. Nature of the test: Inhibition of autophagic flux in VHL-deficient human RCC4 cells assessed as increase in p62 expression at 2.5 to 10 uM incubated for 24 hrs by Western blot analysis. Type of test: functional, cell-based.
In test [29] the test system is DNA. Nature of the test: Induction of DNA damage in human RCC4/VHL cells assessed as increase in p53 expression at 0.5 uM incubated for 24 hrs by Western blot analysis. Type of test: cell-based.
The subject of test [30] is DNA. Nature of the test: Induction of DNA damage in VHL-deficient human RCC4 cells assessed as increase in p53 expression at 0.5 uM incubated for 24 hrs by Western blot analysis. Type of test: cell-based.
Test [31] deals with RCC4. Nature of the test: Induction of apoptosis in VHL-deficient human RCC4 cells assessed as cleavage of pro-caspase 3 at 0.5 uM incubated for 24 hrs by Western blot analysis. Type of test: functional, cell-based.
Test [32] concerns RCC4/VHL. Nature of the test: Induction of apoptosis in human RCC4/VHL cells assessed as cleavage of pro-caspase 3 at 0.5 uM incubated for 24 hrs by Western blot analysis. Type of test: functional, cell-based.

In the case of `CC(c1cc2ccccc2s1)N(O)C(N)=O` (stereo not drawn) [ZILEUTON], the inhibition entry in [1] and in test [3] was “Active” throughout. Besides, the half-inhibitory concentration (IC50) (usually the concentration needed to halve the response being measured) in test [2] was more than 100 µM.
As to `O=C(/C=C/c1cc(O)cc(O)c1)OCCc1ccccc1`, the Activity in test [4] is 100%.
On to `O=C(/C=C/c1cc(O)ccc1O)CCc1ccccc1`, for which the inhibition (as a rule, the relative decrease from the control value, in per cent) in test [1] is more than 50%. The results for the Ratio IC50 in test [5] and in test [12] were 4 and 1.8, respectively. Moreover, the IC50 in test [6] amounted to 5.1 µM; in test [7], 530 nM; in test [8], 9.2 µM; in test [9], 9.9 µM; in test [10], 20.5 µM; in test [11], 19 µM. Moreover, the IC50 turned out to be 12.3 µM in [13] and 15 µM in [2]. The inhibition result in test [3] was “Active”.
With `O=C(OCCc1ccccc1)c1cc(O)ccc1O`, the 50% inhibitory concentration (IC50) in test [6] was 3.9 µM; in test [8] it was 14.8 µM; in test [9], 42.8 µM; in test [10], more than 100 µM; in test [11], more than 100 µM; in test [13] it was more than 100 µM. For the same molecule, the half-maximal inhibitory concentration (IC50) in test [2] was 17.3 µM. Besides, the inhibition result in test [3] was “inactive”.
Regarding `O=C(/C=C/c1cc(O)ccc1O)OCCc1ccccc1`, the inhibition in [1] is more than 50%; in test [17], “Dose-dependent effect”. Moreover, the Activity result in [14] was “Dose-dependent effect”; in [9], “Dose-dependent effect”; in test [22], “Dose-dependent effect”; in [23] it was “Dose-dependent effect”; in test [25] it was “Dose-dependent effect”; in test [4] it was 25%. The Activity entry in test [26] and in [13] was “Dose-dependent effect” throughout. Further, the Ratio IC50 in test [5] was determined as 7; in [20], 12; in test [12], 3. For the same molecule, the IC50 in [6] is 0.96 µM; in test [7], 330 nM; in [8], 5.04 µM; in test [9], 8 µM; in test [10], 34.8 µM; in test [11] it was more than 100 µM. Also, the figures for the 50% inhibitory concentration (IC50) in test [13] and in test [2] were 99.6 µM and 16.4 µM, respectively. In addition, the result in test [15], in test [16], in test [18] and in test [19] was inactive. Moreover, the outcome in test [21] and in [24] was Active. Also, the inhibition entry in test [27] and in test [28] was “Active” each time.
As for `COc1cccc2c1C(=O)c1c(O)c3c(c(O)c1C2=O)C[C@@](O)(C(=O)CO)C[C@@H]3O[C@H]1C[C@H](N)[C@H](O)[C@H](C)O1`, the result in test [29] and in test [30] was Active. For the same molecule, the result in test [31] and in test [32] was inactive.
Consider `O=C(/C=C/c1ccc(O)cc1O)OCCc1ccccc1`, for which, in test [4], the Activity amounted to 100%.
